Results on four compounds are retold here after US5420276A, “Analogs of oxetanyl purines and pyrimidines” (Abbott Laboratories, priority 1993, dated 1995).

Data set [1] concerns Varicella-Zoster Virus (VZV) clinical isolate DM625. Nature of the data set: VZV plaque reduction assay. In kind it is cell-based. As to conditions: Human alphaherpesvirus 3, 144 h, VZV in HFF; for EC50: minimum concentration required to inhibit plaque formation by 50%, read-out: MIC50. As to the method:
The compounds of the invention were evaluated for selective activity against varicella zoster virus (VCV) utilizing a plaque reduction assay procedure. The challenge virus was a clinical isolate designated DM625, obtained from Dr. Richard Whitley of the University of Alabama Hospitals, Birmingham, Ala. The virus had been passaged and titrated in cultures of human foreskin fibroblasts (HFF).
(§1) For the plaque reduction assay, sixth to twelfth passage human foreskin fibroblasts were seeded in wells of 12-well tissue culture plates and incubated at 37° C. in a humidified atmosphere containing 2% CO2 in air. Subconfluent HFF were rinsed with MEM and exposed to 0.5 ml/well of a suspension of VZV diluted in MEM+2% FBS for 2 hours at 37° C. Following the virus adsorption period, the inocula were removed and the infected cell layers were rinsed with MEM. Triplicate VZV-infected cell culture wells were treated with 1.0 ml of each concentration of test compound (in MEM+2% FBS). Six untreated virus-infected cell cultures and triplicate untreated uninfected cell cultures were fed with 1.0 ml of MEM+2% FBS to serve as controls. Wells containing uninfected HFF were treated with each concentration of test compound to monitor the test compound cytotoxicity. The 12-well plates were incubated at 37° C. in the CO2 incubator. At 48 hours post-virus infection (p.i.), fluids in all plate wells were replaced with fresh test compound and/or culture medium.
Six days p.i., the VZV plaques were counted (unstained, low magnification).The effect of each concentration of test compound on plaque formation was determined by comparing the mean number of plaques in the replicate test compound-treated cultures with the mean plaque counts of the untreated virus control cultures.
The MIC50 value is the minimum concentration of test Compound required to inhibit plaque formation by 50%.

Data set [2] in a line: MTT test compound cytotoxicity in human foreskin fibroblasts. In kind it is cell-based. The following applies: hff cells, read-out: MTT assay (Percent of control). As to the method:
as §1
The test compound cytotoxicity control cultures were examined microscopically for gross morphologic changes, then treated with MTT and 30% SDS. The blue color of the MTT formazan was measured spectrophotometrically at 570 nm. Test compound cytotoxicity was determined by comparing the absorbance (O.D.) of each test compound control with the mean O.D. of the cell control cultures and expressed as percent of control.

Data set [3] has as its system HSV-1 (E-377). Nature of the data set: CPE inhibition assay (MTT), HSV-1 (E-377) in Vero cells. In kind it is cell-based, herpes simplex virus type 1. As to conditions: Human alphaherpesvirus 1, inhibited CPE by 50%. As to the method:
(§2) Vero cells were pregrown as monolayers in wells of COSTAR 96-well tissue culture plates using suitable cell culture media. Stock viruses were pretitered according to the method of Reed and Muench (Amer. J. Hyg. 27 493 (1938)) and diluted in cell culture medium to yield 32 CCID50 (cell culture infectious dose, 50%) units per 0.1 mL. Antiviral assays were designed to test six concentrations of each compound, from cytotoxic to noncytotoxic levels, in triplicate against each of the challenge viruses in microtiter plate wells containing cell monolayers. To each of the replicate cell cultures were added 0.1 mL of the test-compound solution and 0.1 mL of virus suspension. Two compounds were evaluated per plate. The following controls were included:
(§3) (1) Cell controls containing cells+medium;
(§4) (2) Untreated, virus-infected cell controls;
(§5) (3) Test-compound cytotoxicity controls containing uninfected, test-compound treated cells;
(§6) (4) Test-compound color controls-test-compound+medium (no cells); and
(§7) (5) Reagent (experiment medium) controls-medium only (no cells).
(§8) The covered plates were incubated at 37° C. in a humidified atmosphere containing 2% CO2. When cytopathogenic effect (CPE) in untreated virus control wells reached 100%, 20 μL of 3-(4,5-dimethyl-thiazol-2-yl)-2,5-diphenyl tetrazolium bromide (MTT) (dissolved in PBS at 5 mg/mL) was pipetted into each of the plate wells. The plates were incubated at 37° C. for six hours; then 40 μL of 30% SDS (in 0.02N HCl) was added to each well. After overnight incubation at 37° C., the blue color or the MTT formazan was measured spectrophotometrically at 570 nm. The optical density (OD) value of each culture is a function of the amount of formazan produced which is proportional to the number of viable cells. A computer program was utilized to calculate the percent (CPE) reciprocal of % CPE reduction) of the virus-infected wells and % cell viability of the uninfected test-compound control wells.
The IC50 value is the minimum test-compound concentration (μg/mL) that inhibited CPE by 50% calculated by using a regression analysis program for semilog curve fitting. The TC25 value is the minimum test-compound concentration (μg/mL) that reduced cell viability by 25%.

Data set [4] concerns HSV-2 (MS). Nature of the data set: CPE inhibition assay (MTT), HSV-2 (MS) in Vero cells. In kind it is cell-based, herpes simplex virus type 2. The following applies: Human alphaherpesvirus 2, inhibited CPE by 50%. The protocol:
as §2, §3, §4, §5, §6, §7
as §8, with “control wells. […]” for “control wells.”

The subject of data set [5] is Vero cells. Nature of the data set: MTT cell viability of uninfected test-compound control Vero cells. In kind it is cell-based, African green monkey. The following applies: reduced cell viability by 25%, HSV-1 (E-377) line. As to the method: as §2, §5
The covered plates were incubated at 37° C. in a humidified atmosphere containing 2% CO2. When cytopathogenic effect (CPE) in untreated virus control wells reached 100%, 20 μL of 3-(4,5-dimethyl-thiazol-2-yl)-2,5-diphenyl tetrazolium bromide (MTT) (dissolved in PBS at 5 mg/mL) was pipetted into each of the plate wells. The plates were incubated at 37° C. for six hours; then 40 μL of 30% SDS (in 0.02N HCl) was added to each well. After overnight incubation at 37° C., the blue color or the MTT formazan was measured spectrophotometrically at 570 nm. […]

The test system of data set [6] is Herpes Simplex Virus Type 1. The data set is described as follows: Neutral red dye uptake assay for antiviral activity, HSV-1 in Vero cells. In kind it is cell-based. As to conditions: Human alphaherpesvirus 1, HSV-1, Vero, concentration at which 50% CPE would be observed, read-out: MIC50. The protocol: (§9) Vero cell monolayers were harvested by trypsinization. The number of viable cells per ml. was determined by staining an aliquot with trypan blue and counting in a hemocytometer. Cell densities were adjusted in growth medium to contain 4×10^5 cells/mi. 96-well sterile tissue culture plates were seeded with 100 μl/well of the adjusted cell suspensions, i.e., 4×10^4 cells/well. Seeded plates were incubated overnight at 37° C. with CO2.
(§10) After overnight incubation, monolayers were approximately confluent. The growth medium was removed and the monolayers in each cell were infected with 100 μl of virus diluted in maintenance medium to produce approximately 90% cytopathogenic effect (CPE) after 2 to 3 days incubation. The virus was allowed to adsorb for 1 hour at 37° C. with 4 to 6% CO2. Controls for cell growth were overlayed with virus-free maintenance medium. The maintenance medium containing residual virus was removed.
(§11) The test compounds were dissolved and/or diluted in maintenance medium to the concentration desired for testing and were added to the wells of the plate. Aliquots (100 μl ) of each concentration were added to wells in replicate (duplicate or triplicate). Controls for virus activity were overlayed with drug-free maintenance medium. Replicate wells containing only maintenance medium served as controls for background absorbance levels.
After incubation, the medium was removed from all the wells. 100 μl of neutral red solution was added to each well and the plate was incubated at 37° C. without CO2 for 2 hours. After the 2 hour incubation, the excess neutral red solution was removed. […]
The neutral red stain taken up by the viable cells was extracted by adding 100 μl/well of acidified methanol, pH 1.0. […] The amount of neutral red stain extracted into the methanol was quantified by determining the absorbance at a wavelength of 540 nm.
The percent CPE in virus controls was determined by the following formula: [formula]
The percent CPE in cells infected with virus and treated with the test compound was determined by the following formula: [formula] […]

A short description of data set [7]: in vitro. In kind it is cell-based, African green monkey. As to conditions: monkey, vero cells. The protocol:
as §9, §10, §11
After incubation, the medium was removed from all the wells. 100 μl of neutral red solution was added to each well and the plate was incubated at 37° C. without CO2 for 2 hours. After the 2 hour incubation, the excess neutral red solution was removed. The plates were washed with 100 μl/well of PBS, pH 7.2 and then the PBS was removed.
The neutral red stain taken up by the viable cells was extracted by adding 100 μl/well of acidified methanol, pH 1.0. (The acidified methanol fixed the cells to the well). The plate was allowed to stand at room temperature for at least 15 minutes to allow for maximum extraction. The amount of neutral red stain extracted into the methanol was quantified by determining the absorbance at a wavelength of 540 nm. […]

In brackets after ≈: the same amount, converted by molar mass.

The term inhibition denotes the percentage by which the read-out fell short of the control. One may read the IC50 as the midpoint of a concentration-inhibition curve. Usually CC50 stands for the concentration at which the toxic effect on the cells reaches its halfway point. Low readings indicate harm at low concentration, high ones better tolerance by the cells.

In data set [1], `O=c1[nH]c(=O)n([C@@H]2O[C@H](CO)[C@H]2CO)cc1I` [Example 42, 1-([2'R, 3'R, 4'S]-3',4'-Bis(hydroxymethyl)-2'-oxetanyl)-5-iodouracil] returned an inhibition at 0.032 µM of 7%, an inhibition at 0.1 µM of 2%, an inhibition at 0.32 µM of 54% and an inhibition at 1 µM of 76%. In data set [1], this compound displayed an inhibition at 3.2 µM of 98%, an inhibition at 10 µM of 99%, an inhibition at 32 µM of 100% and an inhibition at 100 µM of 100%. In data set [1], the inhibition at 320 µM is 99.6%, the inhibition at 1000 µM came to 100% and the EC50 came to 0.1 µg/mL (≈ 0.282 µM). In data set [2], the viability at 1 µM came to 93%, the viability at 3.2 µM was 94%, the viability at 10 µM is 80% and the viability at 32 µM is 88%. Besides, in data set [2], the viability at 100 µM was found to be 82%, the viability at 320 µM is 79% and the viability at 1000 µM is 68%. For the same compound, the IC50 in data set [3] stood at 0.05 µg/mL (≈ 0.141 µM). The IC50 in data set [4] was determined as 35.3 µg/mL (≈ 99.7 µM).
In data set [1], `O=c1[nH]c(=O)n([C@@H]2O[C@H](CO)[C@H]2CO)cc1Br` [Example 43, 1-([2'R, 3'R, 4'S]-3',4'-Bis(hydroxymethyl)-2'-oxetanyl)-5-bromouracil] displayed an inhibition at 0.032 µM of 1%, an inhibition at 0.1 µM of 12%, an inhibition at 0.32 µM of 41% and an inhibition at 1 µM of 75%. In data set [1], this compound registered an inhibition at 3.2 µM of 98%, an inhibition at 10 µM of 99%, an inhibition at 32 µM of 99% and an inhibition at 100 µM of 100%. Further, in data set [1], the inhibition at 320 µM amounted to 100%, the inhibition at 1000 µM worked out at 100% and the EC50 turned out to be 0.17 µg/mL (≈ 0.554 µM). The viability at 0.032 µM in data set [2] (0.032 μM) was 100%. Also, in data set [2], the viability at 0.1 µM was determined as 100%, the viability at 0.32 µM was found to be 96%, the viability at 1 µM is 100% and the viability at 3.2 µM is 93%. In addition, in data set [2], the viability at 10 µM was determined as 99%, the viability at 32 µM was 93%, the viability at 100 µM stood at 100% and the viability at 320 µM was found to be 88%. For the same compound, in data set [2], the viability at 1000 µM came out at 82%. This compound also gave an IC50 in data set [3] of 0.7 µg/mL (≈ 2.28 µM). Moreover, the IC50 in data set [4] amounted to 141 µg/mL (≈ 459 µM).
Compound `O=c1[nH]c(=O)n([C@@H]2O[C@H](CO)[C@H]2CO)cc1C=CI` [Example 49, 1([2'R, 3'R, 4'S]-3',4'-Bis(hydroxymethyl)-2'-oxetanyl)-5-(2-iodo-1-vinyl)uracil] had an inhibition at 0.0032 µM in data set [1] (0.0032 μM) of 18%. This compound also showed an inhibition at 0.01 µM in data set [1] (0.01 μM) of 49%. Further, in data set [1], the inhibition at 0.032 µM turned out to be 97%, testing at 0.1 µM gave an inhibition of 98%, the inhibition at 0.32 µM amounted to 98% and at 1 µM the inhibition was 99%. For the same compound, the EC50 in data set [1] amounted to 0.01 µg/mL (≈ 0.0263 µM). In data set [2], the viability at 0.1 µM came to 100%, the viability at 0.32 µM was determined as 100% and the viability at 1 µM stood at 100%. The IC50 in data set [3] was determined as 0.67 µg/mL (≈ 1.76 µM). In data set [5], this compound had a TC25 of over 380 µg/mL.
`C=Cc1cn([C@@H]2O[C@H](CO)[C@H]2CO)c(=O)[nH]c1=O` [Example 61, 1-([2'R, 3'R, 4'S]-3',4'-Bis(hydroxymethyl)-2'-oxetanyl)-5-vinyluracil]: in data set [6], the EC50 is 0.02 µg/mL (≈ 0.0787 µM). In data set [7], this compound had a CC50 of over 1000 µg/mL. In data set [4], the IC50 is 6.3 µg/mL (≈ 24.8 µM).
